Assay results: patent US8211465B2, “Immediate release and sustained release ibuprofen dosing regimen” (McNeil-PPC, Inc., priority 2007, dated 2012)

Test system: moderate to severe post-operative dental pain
Assay: PK/PD dental pain study, 12 hour observation period
Procedure: A double-blind, randomized, parallel, placebo-controlled, single center, PK/PD dental pain study was conducted over a 12 hour observation period to evaluate the pharmacokinetic, pharmacodynamic, efficacy and safety profiles of certain ibuprofen dosing regimens. Specifically, a single dose of 600 mg ibuprofen extended release caplets was compared with equivalent total doses of ibuprofen immediate release 200 mg caplets administered in three different dosing regimens as well as placebo in the treatment of moderate to severe post-operative dental pain. […] One sub-group of patients had both pharmacokinetic and pharmacodynamic evaluation (PK group). The other sub-group of patients had only the analgesic efficacy evaluations (non-PK group). Patients from both subgroups were assigned at random to one of the five following treatments:
A stopwatch technique was used to measure the onset of meaningful pain relief.

Question: Which “pain relief during the first four hours” value (400/200/0 regimen: immediate release 400 mg at 0 hour, 200 mg at 4 hours) does the source give for `CC(C)Cc1ccc(C(C)C(=O)O)cc1` (stereo not shown) [ibuprofen, 2-(4-isobutylphenyl)-propionic acid] here?
Answer: Its value is “superior pain relief over the other treatments”.

Question: What about the “pain relief over the entire 12-hour study period” value (400/200/0 regimen: immediate release 400 mg at 0 hour, 200 mg at 4 hours, dental pain patients) of the same compound?
Answer: The value was “excellent pain relief”.

Question: What about the “pain relief scores during the 4 to 12 hour interval” value (400/200/0 regimen, no further ibuprofen after the first four hours) of the same compound?
Answer: The value was “highest pain relief scores”.

Question: What about the “pain relief during the first four hours” value (600/0/0 immediate release treatment: 600 mg single dose at 0 hour) of the same compound?
Answer: Its value is “superior pain relief over the other treatments”.
